Experimental data from patent publication US20220184080A1 (Aerovate Therapeutics, Inc., priority 2019, published 2022).

Assay: thermal stability of imatinib salt forms
Assay type: physicochemical
Conditions: method not described

| Compound | thermal stability |
| --- | --- |
| O=S(=O)(O)CCO [isethionate] | suitable thermal stability |
| malate | suitable thermal stability |
| malonate | suitable thermal stability |
| tartrate | suitable thermal stability |
